We go through four compounds from patent publication US5142046A, “Optically active pyridobenzoxazine derivatives and intermediates thereof” (Daiichi Pharmaceutical Co., Ltd., priority 1985, dated 1992).

As a reminder, the LD50 is the dose at which mortality reaches 50%. A higher LD50 goes with lower toxicity.

The test system of one data set is Str. pyogenes, G-36. Briefly: Minimum Inhibitory Concentration (MIC), standard method of The Japan Society of Chemotherapy. As to conditions: Streptococcus pyogenes, G36, read-out: Minimum Inhibitory Concentration (MIC).
The next data set relates to Ps. maltophilia, IID1275. The data set is described as above. Particulars: Stenotrophomonas maltophilia, IID1275, read-out: Minimum Inhibitory Concentration (MIC).
In another data set the test system is K. pneumoniae, Type 2. Described as above. Particulars: Klebsiella pneumoniae, TYPE2, read-out: Minimum Inhibitory Concentration (MIC).
The next data set deals with male mice. Nature of the data set: acute intravenous toxicity in male mice. Particulars: for Day after treatment 1 (number of mice dead) / Day after treatment 2 (number of mice dead) / Day after treatment 3 (number of mice dead) / Mortality: i.v.; for Day after treatment 1 (number of mice dead) / Day after treatment 2 (number of mice dead) / Day after treatment 3 (number of mice dead): 5 male mice; for Day after treatment 1 (number of mice dead): day 1; for Day after treatment 2 (number of mice dead): day 2; for Day after treatment 3 (number of mice dead): day 3; for Mortality: male mice; for acute toxicity (LD50) compared with racemate, in words: mice, intravenous, relative to (±)-compound.

The next data set can be described thus: in vivo. As to conditions: mouse, iv.
Another data set relates to Ser. marcescens, 10100. Nature of the data set: Minimum Inhibitory Concentration (MIC), standard method of The Japan Society of Chemotherapy. Particulars: Serratia marcescens, 10100, read-out: Minimum Inhibitory Concentration (MIC).
The next data set relates to S. aureaus, Smith. The data set is described as above. As to conditions: read-out: Minimum Inhibitory Concentration (MIC).
The next data set concerns E. coli, NIHJ. The description is as above. Particulars: Escherichia coli, read-out: Minimum Inhibitory Concentration (MIC).
A further data set relates to Ps. aeruginosa, 32121. Described as above. As to conditions: Pseudomonas aeruginosa, 32121, read-out: Minimum Inhibitory Concentration (MIC).
For another data set, the system named is Ps. aeruginosa, 32104. The data set is described as above. As to conditions: Pseudomonas aeruginosa, 32104, read-out: Minimum Inhibitory Concentration (MIC).
A further data set has as its system S. aureaus, 209P. Described as above. Particulars: read-out: Minimum Inhibitory Concentration (MIC).
For another data set, the system named is various microorganisms. Briefly: antimicrobial activity compared with racemic Ofloxacin (summary). Type of data set: cell-based. Particulars: relative to (±)-compound.

≈ marks a conversion by molar mass, not a printed value. A value given as a limit tells only on which side of the number the result lay.

Source text for E. coli, NIHJ: (§1) The test method was in accordance with the standard method specified by The Japan Society of Chemotherapy.
Source text for K. pneumoniae, Type 2: as §1
Source text for Ps. aeruginosa, 32104: as §1
Source text for Ps. aeruginosa, 32121: as §1
Source text for Ps. maltophilia, IID1275: as §1
Source text for S. aureaus, 209P: as §1
Source text for S. aureaus, Smith: as §1
Source text for Ser. marcescens, 10100: as §1
Source text for Str. pyogenes, G-36: as §1

As to `CC1COc2c(N3CCN(C)CC3)c(F)cc3c(=O)c(C(=O)O)cn1c23` (racemic) [Racemic Ofloxacin, (±)-9-fluoro-3-methyl-10-(4-methyl-1-piperazinyl)-7-oxo-2,3-dihydro-7H-pyrido[1,2,3-de][1,4]-benzoxazine-6-carboxylic acid, reference compound], the MIC is 1.56 µg/mL (≈ 4.32 µM) with Str. pyogenes, G-36; 0.78 µg/mL (≈ 2.16 µM) with Ps. maltophilia, IID1275; 0.1 µg/mL (≈ 0.277 µM) with K. pneumoniae, Type 2; 0.1 µg/mL (≈ 0.277 µM) in the data set with Ser. marcescens, 10100; 0.2 µg/mL (≈ 0.553 µM) in the data set with S. aureaus, Smith; less than 0.1 µg/mL with E. coli, NIHJ. Also, the MIC amounted to 0.2 µg/mL (≈ 0.553 µM) in the data set with Ps. aeruginosa, 32121; 0.78 µg/mL (≈ 2.16 µM) with Ps. aeruginosa, 32104; 0.39 µg/mL (≈ 1.08 µM) in the data set on S. aureaus, 209P. Also, the “Day after treatment 1 (number of mice dead)” value is given as 0 in the data set with male mice (100 mg/kg), 2 with male mice (200 mg/kg) and 5 with male mice (400 mg/kg). Besides, the “Day after treatment 2 (number of mice dead)” value with male mice (100 mg/kg), with male mice (200 mg/kg) and in the data set with male mice (400 mg/kg) was 0 in each case. The “Day after treatment 3 (number of mice dead)” value in the data set with male mice (100 mg/kg), in the data set with male mice (200 mg/kg) and in the data set on male mice (400 mg/kg) was 0 each time. Besides, the Mortality in the data set with male mice (100 mg/kg) is on record as 0/5; in the data set on male mice (200 mg/kg), 2/5; in the data set on male mice (400 mg/kg), 5/5. In the data set “in vivo”, this compound showed a median lethal dose (LD50) of 203 mg/kg.
Turning to `CCN1CCN(c2c(F)cc3c(=O)c(C(=O)O)cn4c3c2OC[C@@H]4C)CC1` [Example 17, (S)-(-)-9-Fluoro-3-Methyl-10-(4-Ethyl-1-Piperazinyl)-7-Oxo-2,3-Dihydro-7H-Pyrido[1,2,3-de][1,4]Benzoxazine-6-Carboxylic Acid], the MIC was 1.56 µg/mL (≈ 4.16 µM) in the data set with Str. pyogenes, G-36; 0.1 µg/mL (≈ 0.266 µM) in the data set with Ps. maltophilia, IID1275; less than 0.1 µg/mL with K. pneumoniae, Type 2; less than 0.1 µg/mL in the data set on Ser. marcescens, 10100; less than 0.1 µg/mL with S. aureaus, Smith; less than 0.1 µg/mL in the data set with E. coli, NIHJ. The MIC in the data set with Ps. aeruginosa, 32121 was found to be 0.1 µg/mL (≈ 0.266 µM); in the data set with Ps. aeruginosa, 32104, 0.39 µg/mL (≈ 1.04 µM); with S. aureaus, 209P, 0.1 µg/mL (≈ 0.266 µM).
In the case of `C[C@@H]1COc2c(N3CCN(C)CC3)c(F)cc3c(=O)c(C(=O)O)cn1c23` [R(+)-Ofloxacin], the MIC was less than 100 µg/mL in the data set with Str. pyogenes, G-36; 12.5 µg/mL (≈ 34.6 µM) with Ps. maltophilia, IID1275; 1.56 µg/mL (≈ 4.32 µM) with K. pneumoniae, Type 2; 1.56 µg/mL (≈ 4.32 µM) in the data set on Ser. marcescens, 10100; 6.25 µg/mL (≈ 17.3 µM) in the data set with S. aureaus, Smith; 0.39 µg/mL (≈ 1.08 µM) in the data set with E. coli, NIHJ. Also, the MIC came out at 6.25 µg/mL (≈ 17.3 µM) with Ps. aeruginosa, 32121; 12.5 µg/mL (≈ 34.6 µM) in the data set on Ps. aeruginosa, 32104; 25 µg/mL (≈ 69.2 µM) in the data set on S. aureaus, 209P. Moreover, the “Day after treatment 1 (number of mice dead)” value with male mice (100 mg/kg) came out at 0; in the data set on male mice (200 mg/kg), 3; with male mice (400 mg/kg), 5. In addition, the “Day after treatment 2 (number of mice dead)” value with male mice (100 mg/kg), with male mice (200 mg/kg) and in the data set with male mice (400 mg/kg) was 0 each time. Moreover, the “Day after treatment 3 (number of mice dead)” value in the data set on male mice (100 mg/kg), in the data set with male mice (200 mg/kg) and in the data set on male mice (400 mg/kg) was 0 in each case. Also, the figures for the Mortality with male mice (100 mg/kg), in the data set on male mice (200 mg/kg) and in the data set on male mice (400 mg/kg) were 0/5, 3/5 and 5/5, respectively. Further, the “acute toxicity (LD50) compared with racemate, in words” value with male mice is “substantially equal to that of the (±)-compound”.
Turning to `C[C@H]1COc2c(N3CCN(C)CC3)c(F)cc3c(=O)c(C(=O)O)cn1c23` [S(-)-Ofloxacin, S-(-)-9-Fluoro-3-Methyl-10-(4-Methyl-1-Piperazinyl)-7-oxo-2,3-Dihydro-7H-Pyrido[1,2,3-de][1,4]Benzoxazine-6-Carboxylic Acid], the MIC in the data set with Str. pyogenes, G-36 was 0.78 µg/mL (≈ 2.16 µM); with Ps. maltophilia, IID1275, 0.39 µg/mL (≈ 1.08 µM); with K. pneumoniae, Type 2, less than 0.1 µg/mL; with Ser. marcescens, 10100 it was less than 0.1 µg/mL; with S. aureaus, Smith it was 0.1 µg/mL (≈ 0.277 µM); with E. coli, NIHJ, less than 0.1 µg/mL. Also, the MIC in the data set with Ps. aeruginosa, 32121 was determined as 0.1 µg/mL (≈ 0.277 µM); in the data set with Ps. aeruginosa, 32104, 0.39 µg/mL (≈ 1.08 µM); in the data set with S. aureaus, 209P it was 0.2 µg/mL (≈ 0.553 µM). Besides, in the data set on male mice (i.v. in mice), the LD50 was determined as 244 mg/kg. The results for the “Day after treatment 1 (number of mice dead)” value with male mice (100 mg/kg), with male mice (200 mg/kg) and in the data set with male mice (400 mg/kg) were 0, 0 and 5, respectively. Besides, the “Day after treatment 2 (number of mice dead)” value in the data set on male mice (100 mg/kg), with male mice (200 mg/kg) and in the data set on male mice (400 mg/kg) was 0 each time. Moreover, the “Day after treatment 3 (number of mice dead)” value in the data set with male mice (100 mg/kg), in the data set with male mice (200 mg/kg) and with male mice (400 mg/kg) was 0 in each case. In addition, the Mortality is 0/5 with male mice (100 mg/kg), 0/5 with male mice (200 mg/kg) and 5/5 in the data set with male mice (400 mg/kg). In the data set on male mice, the “acute toxicity (LD50) compared with racemate, in words” value is given as “weaker”. In addition, the “antimicrobial activity, times higher than that of the (±)-compound” value in the data set on various microorganisms is on record as “about 2 times”.
